Measured values: PMC3944389, “Differential Neuroprotective Effects of 5′-Deoxy-5′-Methylthioadenosine” (PLoS ONE, 2014)
Marks after values point to notes of the source that are not given here.

Experiments:
[1] = Parallel artificial membrane permeability assay (PAMPA), BBB model, passive diffusion; assay type: in vitro ADME
Method: The PAMPA assay was used to determine the capacity of compounds to cross a blood brain barrier (BBB) model by passive diffusion, measuring the effective permeability of the compounds at an initial concentration of 200 µM. The buffer solution was prepared from a concentrated commercial solution (Pion, Billerica, MA, US) according to the manufacturer's instructions and the pH was adjusted to 7.4 with 0.5 M NaOH. The compound of interest was dissolved in the buffer solution (200 µM), the PAMPA sandwich was separated and the donor well was filled with 195 µL of the compound of interest. The acceptor plate and donor plate were brought together, with the underside of the membrane in contact with the buffer. An 4 µL aliquot of the phospholipid mixture (20 mg/ml) in dodecane was added to the filter of each well, and then 200 µL of buffer solution was added to each acceptor well. The plate was covered and incubated for 4 h at RT in a saturated humidity atmosphere with agitation and with 25 µm of an unstirred water layer in the Gut-Box (Pion). After 4 h, a 150 µL/well sample from the donor plate and a 150 µL/well sample from the acceptor plate were transferred to HPLC vials. Then, 100 µL from acceptor well, 5 µL from the donor well and 5 µL from the t0 samples were injected into an HPLC reverse-phase symmetry C18 column (150 mm×4.6 mm×5 µm, 100 Å; Waters). Transport was confirmed by HPLC mass spectrometry and matrix-assisted laser desorption/ionization time-of-flight (MALDI-TOF) spectrometry to ensure the compound had maintained its integrity. The phospholipid mixture used was a porcine polar brain lipid extract composed of 12.6% phosphatidylcholine (PC), 33.1% phosphatidylethanolamine (PE), 18.5% phosphatidylserine (PS), 4.1% phosphatidylinositol (PI), 0.8% phosphatidic acid and 30.9% of other compounds.

[2] = system: Wistar rats, transient MCAO model of focal brain ischemia; experiment: Transient focal ischemia (MCAO), infarct volume by TTC staining; assay type: in vivo, rat; settings: 30 mg/kg i.p. twice daily from 30 min after onset of ischemia, 3 days reperfusion; compared with vehicle
Method: Male Wistar rats (270-300 g; Harlan) were subjected to transient focal ischemia for 90 min by producing right middle cerebral artery occlusion (MCAO) as described previously, followed by reperfusion for 3 days and MTA treatment (30 mg/kg, intraperitoneally –i.p.- twice daily) starting 30 min after the onset of ischemia (n = 5 in each experimental group). Cerebral blood flow was monitored transcranially with a laser Doppler flowmeter (Perimed) and the infarct volume was assessed by 2,3,5-triphenyltetrazolium chloride (TTC) staining. Transient forebrain ischemia was induced as described elsewhere, by occluding the vertebral and common carotid arteries (4VO) for 10 min, followed by reperfusion for 7 days and MTA treatment (as above) starting 30 min after the onset of ischemia (n = 5 in vehicle group; n = 6 in the […]). The effectiveness of the treatment was assessed by using fluoro-Jade C staining to measure the levels of degenerated neurons in the CA1 region of the hippocampal formation.

[3] = system: C57Bl mice treated with MPTP; experiment: MPTP mouse model of Parkinson's disease, stereological counting of TH+ neurons; assay type: in vivo; settings: MTA 30 mg/kg, MSX-3 10 mg/kg (legend: 9 mg/kg), alone or combined; MPTP 30 mg/kg i.p. 5 days
Method: 12-week-old male C57Bl mice from Charles River (Barcelona, Spain) were injected i.p. with 30 mg/kg 1-methyl-4-phenyl-1,2,3,6-tetrahydropyridine (MPTP, Sigma-Aldrich) on five consecutive days. Subsequently, MTA (30 mg/kg) and/or the A2A adenosine receptor (A2AR, 10 mg/kg) antagonist, MSX-3 (Sigma-Aldrich), was administered one day before starting MPTP treatment and 1 h after each MPTP injection (n = 6 in each experimental group). We used mice in the MPTP model because rats are resistant to systemic MPTP administration and thus, the rat MPTP model requires stereotaxic MPTP injection directly into the nigrostriatal fibers. […]
The reference volume was calculated according to Cavalieri principles from images obtained with a 2× objective using a point count array. The cross-sectional area of the nucleus was measured and the reference volume (Vr) for the entire nucleus was estimated using the following equation: [drawing 1] where T is the thickness of the sections, a/p is the area of each point and Pi is the number of points that landed within the area. The region of interest to estimate the area was outlined at low magnification (4×), and the number of labeled neurons was calculated under 100× magnification (with oil immersion) using randomized meander sampling and the optical dissector methods. […]

5′-deoxy-5′-methylthioadenosine [MTA]
Membrane retention [1]: negligible | effective permeability in PAMPA (in words) [1]: low to intermediate effective permeability | % Membrane retention ([1]; 200 µM, pH 7.4, 4 h at RT): 0% | Pe x 10^−6 (cm/s) ([1]; 200 µM, pH 7.4, 4 h at RT): 0.15 ^* x 10^−6 cm/s | volume of the infarct area [2]: did not show any reduction | neuroprotection: TH+ neurons in the substantia nigra [3]: not statistically significant
